Reference: article PMC10066365, “Nemacol is a small molecule inhibitor of C. elegans vesicular acetylcholine transporter with anthelmintic potential” (Nature Communications, 2023)
Values joined by “and” are separate entries in the source; they are usually repeats but may differ in a detail not shown here. Equal values may be shown once. “Also recorded” adds a separate entry of the source.

Key:
Pristionchus pacificus = Pristionchus pacificus motor disruption dose-response on solid media, 1 h; conditions: for mean % any phene (coiled, jerky-Unc or paralyzed): Pristionchus pacificus young adults, mean of three biological replicates
C. elegans = C. elegans motor phenotype scoring on solid media (Punc/jerky-unc, coiled, paralyzed), wild-type young adults; type: in vivo, Caenorhabditis elegans; conditions: for any phene, mean % fraction of young adults exhibiting any phenotype (coiled, jerky-Unc or paralyzed) / atypical locomotion (number of animals) / coiled (number of animals) / no phene (number of animals) / paralyzed (number of animals): one hour; for any phene, mean % fraction of young adults exhibiting any phenotype (coiled, jerky-Unc or paralyzed): mean of three biological replicates; for atypical locomotion (number of animals) / coiled (number of animals) / no phene (number of animals) / paralyzed (number of animals): young adults, 20 animals per trial, single replicate counts; for Fraction Coiled / Fraction Paralyzed / Fraction Punc: single experiment

`O=[N+]([O-])c1ccc(N2CCN(CC3CC4C=CC3C4)CC2)cc1` (stereo not drawn) [Nemacol-3] was tested, and the “mean % any phene (coiled, jerky-Unc or paralyzed)” value (“mean % any phene” below) (Pristionchus pacificus; conc 3.75, observed at one hour) was 0%, the “mean % any phene” value (Pristionchus pacificus; conc 15, observed at one hour) was 16.6667% and the “mean % any phene” value (Pristionchus pacificus; conc 60, observed at one hour) was 95%. For the same compound, the EC50 (Pristionchus pacificus; Pristionchus pacificus, 1 h, read-out: P. pacificus motor disruption EC50) was 24.5 ± 2.2 µM, the “any phene, mean % fraction of young adults exhibiting any phenotype (coiled, jerky-Unc or paralyzed)” value (C. elegans; 3.75uM) was 19.1667% and the “atypical locomotion (number of animals)” value (C. elegans; 3.75uM) was 0 and 13 and 10. For the same compound, the “coiled (number of animals)” value (C. elegans; 3.75uM) was 0, the “no phene (number of animals)” value (C. elegans; 3.75uM) was 20 and 7 and 10 and the “paralyzed (number of animals)” value (C. elegans; 3.75uM) was 0. The “C1 (number of animals scored)” value (C. elegans; 15 μM, 30 min, adults) was 0, the “C2 (number of animals scored)” value (C. elegans; 15 μM, 30 min, adults) was 0 and the “Fraction Coiled, AVERAGES” value (C. elegans; 15 μM, 30 min, adults) was 0.0. For the same compound, the “Fraction Paralyzed, AVERAGES” value (C. elegans; 15 μM, 30 min, adults) was 0.0, the “Fraction Punc, AVERAGES” value (C. elegans; 15 μM, 30 min, adults) was 0.111 and the “NP (number of animals scored)” value (C. elegans; 15 μM, 30 min, adults) was 17 and 14. The “P (number of animals scored)” value (C. elegans; 15 μM, 30 min, adults) was 0, the “Fraction Coiled” value (C. elegans; 15 μM, 30 min, adults) was 0.0 and the “Fraction Paralyzed” value (C. elegans; 15 μM, 30 min, adults) was 0.0. For the same compound, the “C1 (number of animals scored)” value (C. elegans; 15 μM, 60 min, adults) was 0, the “C2 (number of animals scored)” value (C. elegans; 15 μM, 60 min, adults) was 0 and the “Fraction Coiled, AVERAGES” value (C. elegans; 15 μM, 60 min, adults) was 0.0. The “Fraction Paralyzed, AVERAGES” value (C. elegans; 15 μM, 60 min, adults) was 0.0, the “Fraction Punc, AVERAGES” value (C. elegans; 15 μM, 60 min, adults) was 0.4 and the “P (number of animals scored)” value (C. elegans; 15 μM, 60 min, adults) was 0. For the same compound, the “Fraction Coiled” value (C. elegans; 15 μM, 60 min, adults) was 0.0, the “Fraction Paralyzed” value (C. elegans; 15 μM, 60 min, adults) was 0.0 and the “C1 (number of animals scored)” value (C. elegans; 15 μM, 90 min, adults) was 0. For the same compound, the “C2 (number of animals scored)” value (C. elegans; 15 μM, 90 min, adults) was 0, the “Fraction Coiled, AVERAGES” value (C. elegans; 15 μM, 90 min, adults) was 0.0 and the “Fraction Paralyzed, AVERAGES” value (C. elegans; 15 μM, 90 min, adults) was 0.0. For the same compound, the “Fraction Punc, AVERAGES” value (C. elegans; 15 μM, 90 min, adults) was 0.167, the “NP (number of animals scored)” value (C. elegans; 15 μM, 90 min, adults) was 16 and 14 and 15 and the “P (number of animals scored)” value (C. elegans; 15 μM, 90 min, adults) was 0. For the same compound, the “Punc (number of animals scored)” value (C. elegans; 15 μM, 90 min, adults) was 2 and 4 and 3, the “Fraction Coiled” value (C. elegans; 15 μM, 90 min, adults) was 0.0 and the “Fraction Paralyzed” value (C. elegans; 15 μM, 90 min, adults) was 0.0. The “Fraction Punc” value (C. elegans; 15 μM, 90 min, adults) was 0.111 and 0.222 and 0.167, the “C1 (number of animals scored)” value (C. elegans; 15 μM, 120 min, adults) was 0 and the “C2 (number of animals scored)” value (C. elegans; 15 μM, 120 min, adults) was 0. For the same compound, the “Fraction Coiled, AVERAGES” value (C. elegans; 15 μM, 120 min, adults) was 0.0, the “Fraction Paralyzed, AVERAGES” value (C. elegans; 15 μM, 120 min, adults) was 0.0 and the “Fraction Punc, AVERAGES” value (C. elegans; 15 μM, 120 min, adults) was 0.0185. The “NP (number of animals scored)” value (C. elegans; 15 μM, 120 min, adults) was 18 and 17, the “P (number of animals scored)” value (C. elegans; 15 μM, 120 min, adults) was 0 and the “Fraction Coiled” value (C. elegans; 15 μM, 120 min, adults) was 0.0. For the same compound, the “Fraction Paralyzed” value (C. elegans; 15 μM, 120 min, adults) was 0.0, the “C1 (number of animals scored)” value (C. elegans; 15 μM, 240 min, adults) was 0 and the “C2 (number of animals scored)” value (C. elegans; 15 μM, 240 min, adults) was 0. The “Fraction Coiled, AVERAGES” value (C. elegans; 15 μM, 240 min, adults) was 0.0, the “Fraction Paralyzed, AVERAGES” value (C. elegans; 15 μM, 240 min, adults) was 0.0 and the “Fraction Punc, AVERAGES” value (C. elegans; 15 μM, 240 min, adults) was 0.0. The “NP (number of animals scored)” value (C. elegans; 15 μM, 240 min, adults) was 18, the “P (number of animals scored)” value (C. elegans; 15 μM, 240 min, adults) was 0 and the “Punc (number of animals scored)” value (C. elegans; 15 μM, 240 min, adults) was 0. For the same compound, the “Fraction Coiled” value (C. elegans; 15 μM, 240 min, adults) was 0.0, the “Fraction Paralyzed” value (C. elegans; 15 μM, 240 min, adults) was 0.0 and the “Fraction Punc” value (C. elegans; 15 μM, 240 min, adults) was 0.0. The “C1 (number of animals scored)” value (C. elegans; 15 μM, 360 min, adults) was 0, the “C2 (number of animals scored)” value (C. elegans; 15 μM, 360 min, adults) was 0 and the “Fraction Coiled, AVERAGES” value (C. elegans; 15 μM, 360 min, adults) was 0.0. The “Fraction Paralyzed, AVERAGES” value (C. elegans; 15 μM, 360 min, adults) was 0.0, the “Fraction Punc, AVERAGES” value (C. elegans; 15 μM, 360 min, adults) was 0.0 and the “NP (number of animals scored)” value (C. elegans; 15 μM, 360 min, adults) was 18. For the same compound, the “P (number of animals scored)” value (C. elegans; 15 μM, 360 min, adults) was 0, the “Punc (number of animals scored)” value (C. elegans; 15 μM, 360 min, adults) was 0 and the “Fraction Coiled” value (C. elegans; 15 μM, 360 min, adults) was 0.0. For the same compound, the “Fraction Paralyzed” value (C. elegans; 15 μM, 360 min, adults) was 0.0, the “Fraction Punc” value (C. elegans; 15 μM, 360 min, adults) was 0.0 and the “Next Day: Animals alive (moving fine)” value (C. elegans; 15 μM, next day, adults) was “alive, recovered; also recorded: alive recovered”. For the same compound, the “any phene, mean % fraction of young adults exhibiting any phenotype (coiled, jerky-Unc or paralyzed)” value (C. elegans; 15uM) was 65.4545%, the “atypical locomotion (number of animals)” value (C. elegans; 15uM) was 12 and 14 and 4 and 3 and 7 and the “coiled (number of animals)” value (C. elegans; 15uM) was 2 and 1 and 5. The “no phene (number of animals)” value (C. elegans; 15uM) was 6 and 5 and 15 and 16 and 0, the “paralyzed (number of animals)” value (C. elegans; 15uM) was 2 and 0 and 8 and 11 and the “C1 (number of animals scored)” value (C. elegans; 30 μM, 30 min, adults) was 0. The “C2 (number of animals scored)” value (C. elegans; 30 μM, 30 min, adults) was 0, the “Fraction Coiled, AVERAGES” value (C. elegans; 30 μM, 30 min, adults) was 0.0 and the “Fraction Paralyzed, AVERAGES” value (C. elegans; 30 μM, 30 min, adults) was 0.0. The “Fraction Punc, AVERAGES” value (C. elegans; 30 μM, 30 min, adults) was 0.333, the “NP (number of animals scored)” value (C. elegans; 30 μM, 30 min, adults) was 14 and 11 and the “P (number of animals scored)” value (C. elegans; 30 μM, 30 min, adults) was 0. For the same compound, the “Punc (number of animals scored)” value (C. elegans; 30 μM, 30 min, adults) was 4 and 7, the “Fraction Coiled” value (C. elegans; 30 μM, 30 min, adults) was 0.0 and the “Fraction Paralyzed” value (C. elegans; 30 μM, 30 min, adults) was 0.0. For the same compound, the “Fraction Punc” value (C. elegans; 30 μM, 30 min, adults) was 0.222 and 0.4, the “C1 (number of animals scored)” value (C. elegans; 30 μM, 60 min, adults) was 0 and the “C2 (number of animals scored)” value (C. elegans; 30 μM, 60 min, adults) was 0. The “Fraction Coiled, AVERAGES” value (C. elegans; 30 μM, 60 min, adults) was 0.0, the “Fraction Paralyzed, AVERAGES” value (C. elegans; 30 μM, 60 min, adults) was 0.0 and the “Fraction Punc, AVERAGES” value (C. elegans; 30 μM, 60 min, adults) was 0.6. For the same compound, the “P (number of animals scored)” value (C. elegans; 30 μM, 60 min, adults) was 0, the “Punc (number of animals scored)” value (C. elegans; 30 μM, 60 min, adults) was 8 and 15 and the “Fraction Coiled” value (C. elegans; 30 μM, 60 min, adults) was 0.0. The “Fraction Paralyzed” value (C. elegans; 30 μM, 60 min, adults) was 0.0, the “Fraction Punc” value (C. elegans; 30 μM, 60 min, adults) was 0.444 and 0.8 and the “C1 (number of animals scored)” value (C. elegans; 30 μM, 90 min, adults) was 0. For the same compound, the “C2 (number of animals scored)” value (C. elegans; 30 μM, 90 min, adults) was 0, the “Fraction Coiled, AVERAGES” value (C. elegans; 30 μM, 90 min, adults) was 0.0 and the “Fraction Paralyzed, AVERAGES” value (C. elegans; 30 μM, 90 min, adults) was 0.0. The “Fraction Punc, AVERAGES” value (C. elegans; 30 μM, 90 min, adults) was 0.3, the “NP (number of animals scored)” value (C. elegans; 30 μM, 90 min, adults) was 13 and 9 and 16 and the “P (number of animals scored)” value (C. elegans; 30 μM, 90 min, adults) was 0.
